Results taken from US11026937B2, “Heteroaryl inhibitors of PAD4” (PADLOCK THERAPEUTICS, INC., priority 2016, dated 2021).
Where two headings read alike, the source gives them in different places.

Target: hPAD4 enzyme (Homo sapiens (Human), UniProt Q9UM07)
Test: PAD4 assay (hPAD4-RFMS, RapidFire mass spectrometry)
Type: biochemical
Settings: 100 nM hPAD4, 50 μM substrate peptide, 1 mM CaCl2, 65 mins at 37° C.
Experimental: Compounds of the present invention were assayed as inhibitors of PAD4 using the assay protocol described below.
Compounds were solubilized in 100% DMSO to achieve 100 mM final compound concentration. Compound stock solutions were stored at RT. A series of dilutions were prepared in DMSO and mixed 8 times with 20 μL mixing volume. Final assay conditions were as follows:
Assay buffer (as aforementioned): 100 mM Tris-HCl (pH 7.6), 2 mM DTT, 1 mM CaCl2
Total incubation time: 65 mins at 37° C.
Stop solution: 40 μl 5% TCA in ACN
0.25 μL of compound solution was added to 10 μL of 200 nM PAD4 in assay buffer (100 mM Tris-HCl pH 7.6, 2 mM DTT). After 5 mins, 10 μL of 100 μM of substrate in buffer (100 mM Tris-HCl pH 7.6, 2 mM DTT, 2 mM CaCl2) was added and the reaction incubated for 60 mins at 37° C. The enzymatic reaction was quenched by addition of 40 μl of 5% TCA in ACN (1.7% TCA final concentration) stop solution.
The compound numbers correspond to the compound numbers in Tables 1 and 2. […] The term pIC50=−log(IC50). […] “NA” stands for “not assayed.”

[1] = read-out: hPAD4-RFMS: IC50 (μM) (Average)
[2] = read-out: hPAD4-RFMS: pIC50 (Average) (converted)

Sequence of hPAD4 enzyme (Q9UM07 whole entry): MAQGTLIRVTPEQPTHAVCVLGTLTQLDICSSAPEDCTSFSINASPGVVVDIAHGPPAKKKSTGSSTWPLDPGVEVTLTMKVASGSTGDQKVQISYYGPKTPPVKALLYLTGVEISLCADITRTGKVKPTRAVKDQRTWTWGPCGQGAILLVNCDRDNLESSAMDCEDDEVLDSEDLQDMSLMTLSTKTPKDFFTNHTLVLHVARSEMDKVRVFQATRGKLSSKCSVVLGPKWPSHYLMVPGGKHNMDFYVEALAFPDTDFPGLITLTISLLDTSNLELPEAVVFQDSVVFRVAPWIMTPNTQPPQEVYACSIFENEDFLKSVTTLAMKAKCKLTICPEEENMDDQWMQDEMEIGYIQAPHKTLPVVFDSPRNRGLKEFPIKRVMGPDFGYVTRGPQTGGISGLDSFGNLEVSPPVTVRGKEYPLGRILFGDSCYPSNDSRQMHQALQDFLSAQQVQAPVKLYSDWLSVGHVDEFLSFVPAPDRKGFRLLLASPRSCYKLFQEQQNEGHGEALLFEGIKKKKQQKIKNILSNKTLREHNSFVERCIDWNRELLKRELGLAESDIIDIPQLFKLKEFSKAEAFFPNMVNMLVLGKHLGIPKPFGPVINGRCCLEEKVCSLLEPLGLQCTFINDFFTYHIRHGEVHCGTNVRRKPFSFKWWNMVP

| Structure (SMILES) | IC50 [1] | IC50 [2] | hPAD4-RFMS: pIC50 (Average) |
| --- | --- | --- | --- |
| Cn1c(/C=C/C(=O)c2c(-c3ccccc3)c3ccccc3n(C)c2=O)nc2ccccc21 [Compound I-72] | > 100 µM | 10 to 100 µM |  |
| O=C(/C=C/c1nc2ccccc2[nH]1)c1c(-c2ccccc2)c2ccccc2[nH]c1=O [Compound I-103] | 20 to 100 µM |  | F (pIC50 of 4-5) |
| O=C(/C=C/c1cncnc1)c1c(-c2ccccc2)c2cnccc2[nH]c1=O [Compound I-90, 4-phenyl-3-[(2E)-3-(pyrimidin-5-yl)prop-2-enoyl]-1,2-dihydro-1,6-naphthyridin-2-one] | > 100 µM | 100 to 100000 µM |  |
| O=C(/C=C/c1cncnc1)c1c(-c2cccnc2)c2ccccc2[nH]c1=O [Compound I-95] | > 100 µM | 100 to 100000 µM |  |

The remaining lines, values ahead:

| IC50 [1] | IC50 [2] | hPAD4-RFMS: pIC50 (Average) | Structure (SMILES) |
| --- | --- | --- | --- |
| 3 to 20 µM | < 10 µM |  | COc1ccc(/C=C/C(=O)c2c(-c3ccccc3)c3ccccc3[nH]c2=O)cc1 [Compound I-139] |
| > 100 µM | 100 to 100000 µM |  | COc1ccc(/C=C/C(=O)c2ccc[nH]c2=O)cc1 [Compound I-151] |
| > 100 µM | 100 to 100000 µM |  | O=C(/C=C/c1cccnc1)c1c(-c2ccccn2)c2ccccc2[nH]c1=O [Compound I-124] |
| > 100 µM | 100 to 100000 µM |  | C#CCOCCOCCOc1ccc(/C=C/C(=O)c2c(-c3ccccc3)c3ccccc3[nH]c2=O)cc1 [Compound I-109, 4-phenyl-3-[(2E)-3-(4-{2-[2-(prop-2-yn-1-yloxy)ethoxy]ethoxy}phenyl)prop-2-enoyl]-1,2-dihydroquinolin-2-one] |
| > 100 µM | 100 to 100000 µM |  | O=C(/C=C/c1ccccn1)c1c(-c2ccc(F)cc2)c2ccccc2[nH]c1=O [Compound I-108] |
